Assay [1] deals with T1, p75^NTR receptors (PC12 cells) (Rattus norvegicus, UniProt P07174).
T1 construct: endogenous in cells; host or cells: PC12 cells
T1 sequence (P07174 30-425): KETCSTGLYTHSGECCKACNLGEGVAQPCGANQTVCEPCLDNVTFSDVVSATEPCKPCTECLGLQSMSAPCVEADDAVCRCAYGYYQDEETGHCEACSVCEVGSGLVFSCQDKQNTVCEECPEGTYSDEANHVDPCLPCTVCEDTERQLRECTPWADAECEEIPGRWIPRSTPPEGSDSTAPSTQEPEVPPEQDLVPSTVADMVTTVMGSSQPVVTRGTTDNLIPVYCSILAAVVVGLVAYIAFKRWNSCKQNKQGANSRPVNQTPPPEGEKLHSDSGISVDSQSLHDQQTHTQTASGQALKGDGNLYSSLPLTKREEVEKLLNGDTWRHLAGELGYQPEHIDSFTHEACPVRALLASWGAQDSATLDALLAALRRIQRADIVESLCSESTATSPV
T1 sequence (P23560 129-247 partner): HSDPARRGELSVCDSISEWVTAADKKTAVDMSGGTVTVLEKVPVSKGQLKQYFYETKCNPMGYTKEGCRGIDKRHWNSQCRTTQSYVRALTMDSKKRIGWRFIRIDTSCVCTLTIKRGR
The experiment in a line: Basic screening assay: binding of 125I-BDNF to PC12 cells. Conditions: read-out: BDNF Activity % Maximal Binding. The method, boiled down: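 4×10^6 PC12 cells incubated 2 h at 4° C, rotating, with 0.5 nM ^125I-BDNF (final) and compound at 50 μM, in duplicate or more. Bound ligand separated through 10% glycerol by centrifugation and counted by gamma counter; specific binding is Bmax minus NSB; inhibitors followed up for EC50.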

For assay [2], the system named is p75^NTR receptors (PC12 cells). The experiment in a line: Basic screening assay: binding of 125I-NGF to PC12 cells. Conditions: Table 4; test compound 50 μM; 0.5 nM 125I-NGF; PC12 cells; 2 h at 4° C.; specific binding as percent of control. The method, boiled down: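 Inhibition of 0.5 nM 125I-NGF binding to p75NTR on PC12 cells was measured with compounds at 50 μM during 2 h rotation at 4° C. Cell-bound radioactivity from glycerol-cushion centrifugation was gamma-counted, giving NSB-corrected binding as % of control specific binding.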

Setting [3] is: Table 4, test compound 50 μM, 0.5 nM 125I-BDNF, PC12 cells, 2 h at 4° C., specific binding as percent of control.

Where two headings read alike, the source gives them in different places. Bounds are passed on as bounds.

The record followed here is US20050282840A1, “Methods of modulating neurotrophin-mediated activity” (PainCeptor Pharma Corporation, priority 2004, published 2005).

Regarding `O=C1NN(c2ccc(F)cc2)C(=O)C1=Cc1ccc(-c2ccc([N+](=O)[O-])cc2)o1` [Compound 119, 1-(4-Fluorophenyl)-4-[5-(4-nitrophenyl)furan-2-ylmethylene]-pyrazolidine-3,5-dione], the activity at 50 µM in assay [1] (setting [3]) was above 50%. The “NGF Activity % Maximal Binding” value in assay [2] is listed as “* (50 < *)”.
On to `COCCN1C(=O)C(=Cc2ccc(-c3ccc([N+](=O)[O-])cc3)o2)SC1=S` [Compound 120, 3-(2-Methoxy-ethyl)-5-[5-(4-nitrophenyl)furan-2-ylmethylene]-2-thioxo-thiazolidin-4-one], for which the activity at 50 µM in assay [1] (setting [3]) was above 50%. Further, the “NGF Activity % Maximal Binding” value in assay [2] was “* (50 < *)”.
As to `CCOC(=O)CN1C(=O)S/C(=C/c2ccc(-c3ccc(C(=O)O)cc3C)o2)C1=O` [Compound 121, 4-[5-(3-Ethoxycarbonylmethyl-2,4-dioxo-thiazolidin-5-ylidenemethyl)furan-2-yl]-3-methylbenzoic acid], the activity at 50 µM in assay [1] (setting [3]) was above 50%. Besides, the “NGF Activity % Maximal Binding” value in assay [2] is reported as “* (50 < *)”.
As to `O=C1NC(=O)N(Cc2ccccc2)C(=O)/C1=C/c1ccc(-c2cccc(C(=O)O)c2)o1` [Compound 122, 3-[5-(1-benzyl-2,4,6-trioxo-tetrahydro-pyrimidin-5-ylidenemethyl)furan-2-yl]benzoic acid], the activity at 50 µM in assay [1] is above 50%. Further, the “NGF Activity % Maximal Binding” value in assay [2] is given as “* (50 < *)”.
With `COc1ccc([N+](=O)[O-])cc1-c1ccc(/C=C2/NC(=O)N(c3ccccc3)C2=O)o1` [Compound 123, 5-[5-(2-Methoxy-5-nitrophenyl)furan-2-ylmethylene]-3-phenyl-imidazolidine-2,4-dione], in assay [1] (setting [3]), the activity at 50 µM is above 50%. Besides, in assay [2], the “NGF Activity % Maximal Binding” value was “* (50 < *)”.
For `Cc1cc(C)cc(N2C(=O)/C(=C/c3ccc(-c4ccc(C(=O)O)cc4)o3)C(=O)NC2=S)c1` [Compound 124, 4-{5-[1-(3,5-Dimethylphenyl)-4,6-dioxo-2-thioxo-tetrahydro-pyrimidin-5-ylidenemethyl]furan-2-yl}benzoic acid], in assay [1], the activity at 50 µM was above 50%. Further, the “NGF Activity % Maximal Binding” value in assay [2] was “* (50 < *)”.
Turning to `O=C(O)c1ccc(-c2ccc(/C=C3/NC(=O)N(Cc4ccc(F)cc4)C3=O)o2)cc1` [Compound 126, 4-{5-[1-(4-Fluorobenzyl)-2,5-dioxo-imidazolidin-4-ylidenemethyl]furan-2-yl}benzoic acid], the activity at 50 µM in assay [1] (setting [3]) is above 50%. Besides, the “NGF Activity % Maximal Binding” value in assay [2] is on record as “* (50 < *)”.
Turning to `O=C1NC(=Cc2ccc(-c3ccc(Cl)c([N+](=O)[O-])c3)o2)C(=O)N1c1ccccc1` [Compound 127, 5-[5-(4-Chloro-3-nitrophenyl)furan-2-ylmethylene]-3-phenyl-imidazolidine-2,4-dione], in assay [1] (setting [3]), the activity at 50 µM was above 50%. Besides, in assay [2], the “NGF Activity % Maximal Binding” value was “* (50 < *)”.
For `COC(=O)c1ccc(-c2ccc(/C=C3/NC(=O)N(c4cccc(Cl)c4)C3=O)o2)cc1` [Compound 128, 4-{5-[1-(3-Chlorophenyl)-2,5-dioxo-imidazolidin-4-ylidenemethyl]furan-2-yl}benzoic acid methyl ester] the same measures were above 50% and “* (50 < *)”.
`Cc1ccc(-c2ccc(/C=C3/NC(=O)N(Cc4ccccc4F)C3=O)o2)cc1[N+](=O)[O-]` [Compound 129, 3-(2-Fluorobenzyl)-5-[5-(4-methyl-3-nitrophenyl)furan-2-ylmethylene]-imidazolidine-2,4-dione]: the activity at 50 µM in assay [1] (setting [3]) was above 50%. In assay [2], the “NGF Activity % Maximal Binding” value is “* (50 < *)”.
The like results for `Cc1c(C(=O)O)cccc1-c1ccc(/C=C2/NC(=O)N(c3cccc(Cl)c3)C2=O)o1` [Compound 130, 3-{5-[1-(3-Chlorophenyl)-2,5-dioxo-imidazolidin-4-ylidenemethyl]furan-2-yl}-2-methylbenzoic acid] were, in that order, above 50% and “* (50 < *)”.
With `Cc1cc([N+](=O)[O-])ccc1-c1ccc(/C=C2\NC(=O)N(Cc3ccccc3F)C2=O)o1` [Compound 131, 3-(2-Fluorobenzyl)-5-[5-(2-methyl-4-nitrophenyl)furan-2-ylmethylene]-imidazolidine-2,4-dione], the activity at 50 µM in assay [1] (setting [3]) was above 50%. Moreover, the “NGF Activity % Maximal Binding” value in assay [2] is “* (50 < *)”.
The like results for `CCOC(=O)CN1C(=O)S/C(=C/c2ccc(-c3ccc([N+](=O)[O-])cc3Cl)o2)C1=O` [Compound 132, {5-[5-(2-Chloro-4-nitrophenyl)furan-2-ylmethylene]-2,4-dioxo-thiazolidin-3-yl}-acetic acid ethyl ester] were, in that order, above 50% and “* (50 < *)”.
As to `COc1cc([N+](=O)[O-])ccc1-c1ccc(/C=C2/NC(=O)N(Cc3ccccc3F)C2=O)o1` [Compound 133, 3-(2-Fluorobenzyl)-5-[5-(2-methoxy-4-nitrophenyl)furan-2-ylmethylene]-imidazolidine-2,4-dione], the activity at 50 µM in assay [1] (setting [3]) is above 50%. In addition, the “NGF Activity % Maximal Binding” value in assay [2] is reported as “* (50 < *)”.
The like results for `Cc1cccc(N2NC(=O)C(=Cc3ccc(-c4ccc(Cl)c(C(=O)O)c4)o3)C2=O)c1` [Compound 134, 2-Chloro-5-[5-(3,5-dioxo-1-m-tolyl-pyrazolidin-4-ylidenemethyl)furan-2-yl]benzoic acid] were, in that order, above 50% and “* (50 < *)”.
In the case of `COC(=O)c1ccc(-c2ccc(/C=C3/NC(=O)N(c4cccc(Cl)c4)C3=O)o2)c(C)c1` [Compound 135, 4-{5-[1-(3-Chlorophenyl)-2,5-dioxo-imidazolidin-4-ylidenemethyl]furan-2-yl}-3-methylbenzoic acid methyl ester], the activity at 50 µM in assay [1] (setting [3]) was above 50%. In addition, the “NGF Activity % Maximal Binding” value in assay [2] is recorded as “* (50 < *)”.
For `O=C(O)c1ccc(-c2ccc(/C=C3/NC(=O)N(Cc4ccccc4F)C3=O)o2)cc1` [Compound 136, 4-{5-[1-(2-Fluorobenzyl)-2,5-dioxo-imidazolidin-4-ylidenemethyl]furan-2-yl}benzoic acid], the activity at 50 µM in assay [1] (setting [3]) was above 50%. Further, in assay [2], the “NGF Activity % Maximal Binding” value is recorded as “* (50 < *)”.
The like results for `COc1cc([N+](=O)[O-])ccc1-c1ccc(/C=C2/NC(=O)N(c3cccc(Cl)c3)C2=O)o1` [Compound 137, 3-(3-Chlorophenyl)-5-[5-(2-methoxy-4-nitrophenyl)furan-2-ylmethylene]-imidazolidine-2,4-dione] were, in that order, above 50% and “* (50 < *)”.
`COc1cc([N+](=O)[O-])ccc1-c1ccc(C=C2C(=O)NN(c3cccc(C)c3)C2=O)o1` [Compound 138, 4-[5-(2-Methoxy-4-nitrophenyl)furan-2-ylmethylene]-1-m-tolyl-pyrazolidine-3,5-dione]: the activity at 50 µM in assay [1] (setting [3]) was above 50%. Moreover, the “NGF Activity % Maximal Binding” value in assay [2] is recorded as “* (50 < *)”.
For the compound `COC(=O)c1cccc(-c2ccc(/C=C3/NC(=O)N(Cc4ccccc4F)C3=O)o2)c1C` [Compound 139, 3-{5-[1-(2-Fluorobenzyl)-2,5-dioxo-imidazolidin-4-ylidenemethyl]furan-2-yl}-2-methylbenzoic acid methyl ester], the activity at 50 µM in assay [1] (setting [3]) is above 50%. Further, the “NGF Activity % Maximal Binding” value in assay [2] is reported as “* (50 < *)”.
Regarding `Cc1cccc(N2NC(=O)C(=Cc3ccc(-c4cccc([N+](=O)[O-])c4)o3)C2=O)c1` [Compound 140, 4-[5-(3-Nitrophenyl)furan-2-ylmethylene]-1-m-tolyl-pyrazolidine-3,5-dione], the activity at 50 µM in assay [1] (setting [3]) was above 50%. For the same compound, the “NGF Activity % Maximal Binding” value in assay [2] is recorded as “* (50 < *)”.
The like results for `COC(=O)CN1C(=S)N(C)C(=O)/C1=C/c1ccc(-c2ccc([N+](=O)[O-])cc2)o1` [Compound 141, {3-Methyl-5-[5-(4-nitrophenyl)furan-2-ylmethylene]-4-oxo-2-thioxo-imidazolidin-1-yl}-acetic acid methyl ester] were, in that order, above 50% and “* (50 < *)”.
Regarding `O=C1C(=Cc2ccc(-c3ccc([N+](=O)[O-])cc3)o2)SC(=S)N1c1ccc(O)cc1` [Compound 142, 3-(4-Hydroxyphenyl)-5-[5-(4-nitrophenyl)furan-2-ylmethylene]-2-thioxo-thiazolidin-4-one], the activity at 50 µM in assay [1] (setting [3]) was above 50%. In addition, the “NGF Activity % Maximal Binding” value in assay [2] is “* (50 < *)”.
Turning to `O=C1C(=Cc2ccc(-c3cccc([N+](=O)[O-])c3)o2)SC(=S)N1CCS(=O)(=O)O` [Compound 143, 2-{5-[5-(3-Nitrophenyl)furan-2-ylmethylene]-4-oxo-2-thioxo-thiazolidin-3-yl}-ethanesulfonic acid], in assay [1] (setting [3]), the activity at 50 µM is above 50%. Further, in assay [2], the “NGF Activity % Maximal Binding” value is “* (50 < *)”.
